Results from patent US20240025891A1 (Celgene Corporation, priority 2020, published 2024).
Where two headings read alike, the source gives them in different places.

System: Onchocerca gutturosa adult male worms
Test: Onchocerciasis in vitro screening model Onchocerca gutturosa (worm motility score and MTT/formazan colorimetry)
Settings: read-out: O. gutt Act class
Procedure: Onchocerciasis: In Vitro Screening Model Onchocerca gutturosa
Parasite and cell cultures. Onchocerca gutturosa adult male worms were obtained by dissection from the nuchal ligament connective tissues of naturally infected cattle, from Gambia, W Africa.
The worms were maintained for at least 24 h in culture before use in Eagles Minimum Essential Medium with Earl's Salts (Gibco, UK)+10% heat inactivated new born calf serum (Gibco, UK)+antibiotic cover of 200 units/ml penicillin, 200 μg/ml streptomycin and 0.5 μg/ml amphotericin B (Sigma, UK). Only normally active specimens were used in the test. All cultures and assays were conducted at 37° C. under an atmosphere of 5% CO2 in air.
Drug sensitivity assays. Compound stock solutions were prepared in 100% DMSO unless otherwise indicated and diluted into the medium. Any unused compound stocks were stored at −20° C. Assays were performed in sterile 24-well (2 ml) plates (Falcon, UK).
Worms were then transferred individually to each well of the plate using fine forceps. Worm viability was assessed using 2 parameters: • The measurement of mean worm motility scores on a scale of 0 (immotile) to 10 (maximum) every 24 h, terminating at 120 h, using an Olympus inverted microscope. • The biochemical evaluation of worm viability using MTT/formazan colorimetry. The MTT assay was carried out after the last motility reading (120 h). Single intact worms were placed in each well of a 48-well plate (Falcon, UK) containing 0.5 ml of a solution consisting of 0.5 mg/ml MTT (Sigma UK) in phosphate buffered saline, and then incubated for 30 min at 37° C. The worms were removed, blotted carefully, and individually transferred to separate wells of a 96-well microtiter plate, each containing 200 μl of DMSO to solubilize the formazan. After 1 h the plate was gently agitated to disperse the color evenly and the absorbance value (optical density) of the resulting formazan solution was determined at 490 nm using a multi-well scanning spectrophotometer (Elisa-reader, Dynatech, UK). Inhibition of formazan formation was correlated with worm damage or death.
Primary screen. New compounds were usually tested at 1.25×10^−5 M. Also expressed in μg/ml.
Secondary screen. […] Serial 1 in 4 drug dilutions was carried out to find activity endpoint and EC50 values for motility reduction and inhibition of formazan formation were produced. EC50 values were determined using Excel or Origin V7 scientific graphing and data analysis software.

Row | Compound | IC50 (Onchocerca gutturosa) | IC50 (O. gutturosa adult male worms in vitro)
1 | C[C@@H]1CN(Cc2sc(Nc3cc(C(F)(F)F)ccn3)nc2-c2ccccn2)C[C@H](C)N1 [Example 196, 5-(((3R,5S)-3,5-dimethyl-piperazin-1-yl)methyl)-4-(pyridin-2-yl)-N-(4-(trifluoromethyl)pyridin-2-yl)thiazol-2-amine] | < 200 nM | –
2 | CCOc1cccnc1-c1csc(Nc2ncccc2C)n1 [Example 77, 4-(3-ethoxypyridin-2-yl)-N-(3-methylpyridin-2-yl)thiazol-2-amine] | < 200 nM | –
3 | Cc1cccnc1Nc1cnc(-c2ccc(OC3CCOCC3)cn2)s1 [Example 111, N-(3-methylpyridin-2-yl)-2-(5-(tetrahydro-2H-pyran-4-yloxy)pyridin-2-yl)thiazol-5-amine] | < 200 nM | –
4 | Cc1cccnc1Nc1nc(-c2ccc(Cl)cn2)cs1 [Example 94, 4-(5-chloropyridin-2-yl)-N-(3-methylpyridin-2-yl)thiazol-2-amine] | < 200 nM | –
5 | CCc1cnc(Nc2nc(-c3ccccn3)cs2)cc1C(F)(F)F [Example 130, N-(5-ethyl-4-(trifluoro-methyl)pyridin-2-yl)-4-(pyridin-2-yl)thiazol-2-amine] | < 200 nM | –
6 | O=C(NC1CC(F)(F)C1)c1ccnc(Nc2ncc(-c3ccccn3)s2)c1 [Example 179, N-(3,3-difluoro-cyclobutyl)-2-(5-(pyridin-2-yl)thiazol-2-ylamino) isonicotinamide] | < 200 nM | –
7 | Cc1ccnc(Nc2cc(-c3ncccc3C)ns2)c1 [Example 118, 3-(3-methylpyridin-2-yl)-N-(4-methylpyridin-2-yl)isothiazol-5-amine] | 500 to 5000 nM | –
8 | c1ccc(-c2ccnc(Nc3cnc(-c4ccccn4)s3)c2)cc1 [Example 112, N-(4-phenylpyridin-2-yl)-2-(pyridin-2-yl)thiazol-5-amine] | 200 to 500 nM | –
9 | CSc1ccc(-c2csc(Nc3ncccc3C)n2)nc1 [Example 80, N-(3-methylpyridin-2-yl)-4-(5-(methylthio)pyridin-2-yl)thiazol-2-amine] | < 200 nM | –
10 | Cc1cccnc1Nc1nc(-c2ccccn2)cs1 [Example 215, N-(3-methylpyridin-2-yl)-4-(pyridin-2-yl)thiazol-2-amine] | < 200 nM | –
11 | O=C(NC1CCC(C(F)(F)F)CC1)c1ccnc(Nc2nc(-c3ccccn3)cs2)c1 (stereo not drawn) [Example 150, 2-(4-(pyridin-2-yl)thiazol-2-ylamino)-N-(4-(trifluoromethyl)cyclohexyl) isonicotinamide] | < 200 nM | –
12 | COc1ccc(-c2ncc(Nc3cc(OC(C)C)ccn3)s2)nc1 [Example 113, N-(4-isopropoxypyridin-2-yl)-2-(5-methoxypyridin-2-yl)thiazol-5-amine] | 500 to 5000 nM | –
13 | CCOc1cccc(-c2csc(Nc3ncccc3C)n2)n1 [Example 71] | 500 to 5000 nM | –
14 | c1ccc(-c2csc(Nc3cc(C4CC4)ccn3)n2)nc1 [Example 176, N-(4-cyclopropyl-pyridin-2-yl)-4-(pyridin-2-yl)thiazol-2-amine] | < 200 nM | –
15 | FC(F)(F)c1ccnc(Nc2nc(-c3ccccn3)c(CN3CCOCC3)s2)c1 [Example 210, 5-(morpholino-methyl)-4-(pyridin-2-yl)-N-(4-(trifluoromethyl)pyridin-2-yl) thiazol-2-amine] | < 200 nM | –
16 | CCOc1ccc(-c2csc(Nc3ncc(F)cc3C)n2)nc1 [Example 79, 4-(5-ethoxypyridin-2-yl)-N-(5-fluoro-3-methylpyridin-2-yl)thiazol-2-amine] | < 200 nM | –
17 | N- (cyclohexyl- methyl)- 4-(pyridin- 2-yl)-2-(4- (trifluoromethyl) pyridin-2- ylamino) thiazole-5- carboxamide [Example 202] | – | 500 to 5000 nM
18 | c1ccc(Nc2nc(-c3ccccn3)co2)nc1 [Example 232, N,4-di (pyridin-2-yl)oxazol-2-amine] | < 200 nM | –
19 | CCOc1cccnc1-c1csc(Nc2cc(C)ccn2)n1 [Example 72, 4-(3-ethoxypyridin-2-yl)-N-(4-methylpyridin-2-yl)thiazol-2-amine] | < 200 nM | –
20 | COc1ccc(-c2cnc(Nc3cc(OC(C)C)ccn3)o2)nc1 [Example 228, N-(4-isopropoxy-pyridin-2-yl)-5-(5-methoxypyridin-2-yl)oxazol-2-amine] | 500 to 5000 nM | –
21 | O=C(NC1CCC(F)(F)CC1)c1ccnc(Nc2nc(-c3ccccn3)cs2)c1 [Example 151, N-(4,4-difluoro-cyclohexyl)-2-(4-(pyridin-2-yl)thiazol-2-ylamino) isonicotinamide] | < 200 nM | –
22 | Cc1ccnc(Nc2nc(-c3ncccc3-c3ccccc3)cs2)c1 [Example 103, N-(4-methylpyridin-2-yl)-4-(3-phenylpyridin-2-yl)thiazol-2-amine] | < 200 nM | –
23 | Cc1cnc(Nc2nc(-c3ccccn3)cs2)c(C)c1 [Example 124, N-(3,5-dimethyl-pyridin-2-yl)-4-(pyridin-2-yl)thiazol-2-amine] | < 200 nM | –
24 | c1ccc(-c2csc(Nc3ccc(C4CCCC4)cn3)n2)nc1 [Example 138, N-(5-cyclopentyl-pyridin-2-yl)-4-(pyridin-2-yl)thiazol-2-amine] | < 200 nM | –

Row | Compound | IC50 (Onchocerca gutturosa) | IC50 (O. gutturosa adult male worms in vitro)
25 | CCOc1ccc(-c2csc(Nc3ccc(Cl)cn3)n2)nc1 [Example 85, N-(5-chloropyridin-2-yl)-4-(5-ethoxypyridin-2-yl)thiazol-2-amine] | 200 to 500 nM | –
26 | Cc1ccnc(Nc2nc(-c3cccc(C)n3)cs2)c1 [Example 2] | 200 to 500 nM | –
27 | Cc1ccnc(Nc2ncc(-c3ncccc3C)o2)c1 [Example 230, 5-(3-methylpyridin-2-yl)-N-(4-methylpyridin-2-yl)oxazol-2-amine] | 500 to 5000 nM | –
28 | CCOc1ccc(-c2csc(Nc3ccc(C(F)(F)F)cn3)n2)nc1 [Example 95, 4-(5-ethoxypyridin-2-yl)-N-(5-(trifluoromethyl)pyridin-2-yl)thiazol-2-amine] | < 200 nM | –
29 | Cc1ccnc(Nc2nc(-c3cc(-c4ccccc4)ccn3)cs2)c1 [Example 101, N-(4-methylpyridin-2-yl)-4-(4-phenylpyridin-2-yl)thiazol-2-amine] | < 200 nM | –
30 | c1ccc(-c2csc(Nc3cc4cc[nH]c4cn3)n2)nc1 [Example 137, 4-(pyridin-2-yl)-N-(1H-pyrrolo [2,3-c]pyridin-5-yl)thiazol-2-amine] | 500 to 5000 nM | –
31 | CNC(=O)c1ccc(-c2ccnc(Nc3nc(-c4ccccn4)cs3)c2)cc1 [Example 171, N-methyl-4-(2-(4-(pyridin-2-yl)thiazol-2-ylamino)pyridin-4-yl)benzamide] | < 200 nM | –
32 | CCOc1ccnc(-c2csc(Nc3cc(C)ccn3)n2)c1 [Example 224, 4-(4-ethoxypyridin-2-yl)-N-(4-methylpyridin-2-yl)thiazol-2-amine] | 200 to 500 nM | –
33 | FC(F)(F)c1cc(Nc2nc(-c3ccccn3)cs2)ncc1Br [Example 140, N-(5-bromo-4-(trifluoro-methyl)pyridin-2-yl)-4-(pyridin-2-yl)thiazol-2-amine] | 500 to 5000 nM | –
34 | Cc1ccnc(Nc2nc(-c3cc(Cl)ccn3)cs2)c1 [Example 223, 4-(4-chloropyridin-2-yl)-N-(4-methylpyridin-2-yl)thiazol-2-amine] | < 200 nM | –
35 | Cc1ccnc(Nc2nc(-c3ccccn3)c(COCC3CCC3)s2)c1 [Example 182, 5-((cyclobutyl-methoxy)methyl)-N-(4-methylpyridin-2-yl)-4-(pyridin-2-yl)thiazol-2-amine] | 200 to 500 nM | –
36 | CNC(=O)C1CCCN(c2ccc(Nc3nc(-c4ccccn4)cs3)nc2)C1 (stereo not drawn) [Example 159, N-methyl-1-(6-(4-(pyridin-2-yl)thiazol-2-ylamino)pyridin-3-yl)piperidine-3-carboxamide] | 200 to 500 nM | –
37 | O=C(c1sc(Nc2cc(C(F)(F)F)ccn2)nc1-c1ccccn1)N1CCOCC1 [Example 199, morpholino(4-(pyridin-2-yl)-2-(4-(trifluoromethyl)pyridin-2-ylamino)thiazol-5-yl)methanone] | 500 to 5000 nM | –
38 | Cc1sc(Nc2cc(C(F)(F)F)c(C(C)C)cn2)nc1-c1ccccn1 [Example 186, N-(5-isopropyl-4-(trifluoromethyl)pyridin-2-yl)-5-methyl-4-(pyridin-2-yl)thiazol-2-amine] | < 200 nM | –
39 | c1ccc(-c2cccnc2Nc2nc(-c3ccccn3)cs2)cc1 [Example 125, N-(3-phenylpyridin-2-yl)-4-(pyridin-2-yl)thiazol-2-amine] | 500 to 5000 nM | –
40 | NC(=O)c1ccnc(Nc2nc(-c3ccccn3)cs2)c1 [Example 139, 2-(4-(pyridin-2-yl)thiazol-2-ylamino) iso-nicotinamide] | < 200 nM | –
41 | FC(F)(F)c1ccc(Nc2nc(-c3ccccn3)cs2)nc1 [Example 217, 4-(pyridin-2-yl)-N-(5-(trifluoromethyl)pyridin-2-yl)thiazol-2-amine] | 500 to 5000 nM | –
42 | O=C(c1ccnc(Nc2nc(-c3ccccn3)cs2)c1)N1CCNCC1 [Example 144, piperazin-1-yl(2-(4-(pyridin-2-yl)thiazol-2-ylamino)pyridin-4-yl)methanone] | 200 to 500 nM | –
43 | Cc1cccnc1Nc1cc(-c2ccc(OC3CCOCC3)cn2)ns1 [Example 116, N-(3-methylpyridin-2-yl)-3-(5-(tetrahydro-2H-pyran-4-yloxy)pyridin-2-yl)isothiazol-5-amine] | 500 to 5000 nM | –
44 | COc1ccc(-c2cc(Nc3cc(OC(C)C)ccn3)sn2)nc1 [Example 117, N-(4-isopropoxypyridin-2-yl)-3-(5-methoxypyridin-2-yl)isothiazol-5-amine] | 500 to 5000 nM | –
45 | CC(=O)N(C)c1cc(C(F)(F)F)cnc1Nc1nc(-c2cc(OC(C)C)ccn2)cs1 [Example 82, N-(2-(4-(4-isopropoxypyridin-2-yl)thiazol-2-ylamino)-5-(trifluoromethyl)pyridin-3-yl)-N-methylacetamide] | < 200 nM | –
46 | Cc1sc(Nc2cc(C(=O)NCC(F)(F)F)ccn2)nc1-c1ccccn1 [Example 198, 2-(5-methyl-4-(pyridin-2-yl)thiazol-2-ylamino)-N-(2,2,2-trifluoroethyl) isonicotinamide] | < 200 nM | –
47 | COc1ccc(-c2cc(Nc3cc(OC(C)C)ccn3)[nH]n2)nc1 [Example 236, 4-isopropoxy-N-(3-(5-methoxypyridin-2-yl)-1H-pyrazol-5-yl)pyridin-2-amine] | 500 to 5000 nM | –
48 | Cc1ccc(-c2csc(Nc3cc(C)ccn3)n2)nc1 [Example 1, N-(4-Methylpyridin-2-yl)-4-(5-methylpyridin-2-yl)thiazol-2-amine] | < 200 nM | –
